Experimental data as given in patent US20200108069A1, “Treatment of Fibrotic Conditions” (ANGLIA RUSKIN UNIVERSITY HIGHER EDUCATION CORPORATION, priority 2018, published 2020).
Read-outs that look alike come from different tables or passages of the source.

Assays:
[1] = tested on: fibroblasts isolated from human tunica albuginea (TA); TGF-β1-induced myofibroblast transformation; assay: In Cell ELISA (ICE) phenotypic screening assay of TGF-β1-induced myofibroblast transformation (α-SMA/DNA staining); assay type: cell-based; conditions: for IC50: co-incubation with 10 ng/ml TGF-β1 for 72 hours, α-SMA/DNA staining ratio, read-out: IC50, inhibition of TGF-β1-induced myofibroblasts transformation
Excerpt: Tunica albuginea tissue samples were collected from patients undergoing surgery at University College London Hospital (UCLH), London, UK for penile cancer or PD. All patients gave fully informed written consent to the study. The study was approved by independent research ethics committees (NRES Committee East of England 12/EE/0170 and NRES Committee North of Scotland 15/NS/0051). PD plaque tissue was obtained from patients with chronic PD undergoing a Lue procedure (plaque incision and grafting). Plaque tissue would have otherwise been discarded. Non-plaque TA was obtained from PD patients undergoing a Nesbit procedure whereby non-fibrotic TA tissue was excised from the opposite side of the plaque. TA tissue samples from patients with penile cancer were taken from the proximal side away from the tumour, with the tumour showing negative margins on histological examination.
Tissue samples were carefully dissected to ensure that all cavernosal tissue was removed from the tunica albuginea (TA). To establish fibroblast cultures, TA fragments were seeded in 6-well tissue culture plates (Nunc, Fisher Scientific, UK) as described previously16. The tissue pieces were incubated in DMEM-F12 (GIBCO, Invitrogen, UK) containing 10% FCS (Fisher Scientific, UK) and 1% penicillin-streptomycin (GIBCO, Invitrogen, UK) at 37° C., 5% CO2 for 5-7 days. Tissue fragments were carefully removed using forceps upon outgrowth of cells. Passages 2 to 4 were used for the rest of the experiments.
Cells were seeded onto 96 well optical flat bottom black microplates (Nunc, Fisher Scientific, UK) at 5×10^3 cells per well. After overnight attachment they were incubated with or without 10 ng/ml TGF-β1 for 72 hours. The cells were then fixed using 4% paraformaldehyde, and blocked with 10% donkey serum and 0.1% Triton X-100 in PBS. The cells were then incubated with anti-α-SMA antibody (1:3,000; Sigma Aldrich, UK) for 2 h. Afterwards cells were incubated with donkey anti-mouse secondary antibody conjugated to an infrared dye which emits at 800 nm (1:500; IRdye 800CW; Li-Cor, UK) and a nuclear counterstain at that emits at 700 nm (1:1,000; DRAQS, Biostatus, UK) for 1 h. The plate was scanned using an infrared imaging system (Odyssey CLx imager, LI-COR, UK) at both the 700 nm and 800 nm wavelengths.
We have isolated primary fibroblasts from the plaque and non-plaque TA of patients with PD. We also isolated primary fibroblasts from TA of patients with penile cancer as non-fibrotic controls.

[2] = tested on: TGF-β1 injection into the rat TA (animal model for PD), penile fibrosis; assay: Animal model for PD: molecular and histological analysis of penile tissue (qPCR, Western blot, immunohistochemistry); assay type: in vivo, Male Sprague-Dawley rats
Excerpt: The animal model for PD was first described by […] Lue^18 and modified by Bivalacqua and Hellstrom^19. Male Sprague-Dawley rats (10-12 weeks old) were housed in a regulated environment with a 12-hour light/dark cycle in a standard experimental laboratory. The animals had free access to food and water ad libitum. Fifty male Sprague-Dawley rats were divided into 5 groups: A: sham (injection of vehicle citrate buffer), B: […] Treatment was initiated at the day after injury and continued for 5 weeks followed by a 48 hours wash-out period. The High-Capacity cDNA Reverse Transcription Kit (Applied Biosystems) was used according to the manufacturer's instructions to transcribe RNA to cDNA. One μg in 10 μl were added to 10 μl of the master mix for reverse transcription for a total reaction volume of 20 μl. After reverse transcription the cDNA was diluted 1:10 for qPCR. The Applied BiosystemsTM TaqManTM Fast Advanced Master Mix was used for qPCR. Gene specific primer pairs for GAPDH, beta-actin, alpha smooth muscle actin, elastin, and collagens I, III, and V were purchased from Applied Biosystems. […] Data was analysed using the 2-ΔΔCt method for relative quantifications. […] Statistical significance, unless otherwise stated, was calculated using one or two-way ANOVA and Student's t-test for unpaired means (two-sided). […]

[3] = tested on: TGF-β1-induced myofibroblast collagen contraction, TA-derived fibroblasts; assay: Collagen gel contraction assay (fibroblast populated collagen lattices); assay type: cell-based, human; conditions: 10 ng/ml TGF-β1; lattices released after 72 h, contraction observed for 8 h
Procedure: Images were analysed using ImageJ software by measuring the surface area of the contracting lattice. Contraction was calculated as percentage of the surface of the unreleased lattice. Data is shown as percentage of maximum contraction of vehicle control. The two classes of drugs were then tested in functional assays. Firstly, we tested their efficacy in inhibiting collagen gel contraction as a measure of myofibroblast contractility; a characteristic function of myofibroblasts, which separates them from fibroblasts. […] Secondly, we tested the drugs' efficacy in inhibiting ECM protein production, which is again one of the critical characteristic functions of myofibroblasts. […] FIG. 4).

[4] = tested on: TGF-β1 injection into the rat TA (animal model for PD); assay: Animal model for PD: assessment of erectile function (intracavernous pressure, ICP); assay type: in vivo, Male Sprague-Dawley rats; conditions: tamoxifen 5 mg/kg/day i.p., vardenafil 1.5 mg/kg/day drinking water, 5 weeks
[5] = tested on: TGF-β1-induced myofibroblast ECM protein production, cells derived from TA tissue; assay: ECM production assay; assay type: cell-based; conditions: Homo sapiens, 168 h, 10 ng/ml TGF-β1 for 7 days
Procedure: Cells were seeded onto 96 well optical flat bottom black microplates (Nunc, Fisher Scientific, UK) at 5×10^3 cells per well. After overnight attachment, they were stimulated with or without 10 ng/ml TGF-β1 and/or compounds for 7 days. DRAQS in PBS (1:1,000) was added and cells were incubated for 5 min at 37° C., 5% CO2 before scanning the plate to obtain nuclear staining. […] Afterwards ECM was stained either with Coomassie Blue (total ECM) overnight at 4° C. or with primary antibodies (collagen I, abcam; collagen III, Millipore; collagen V, abcam: fibronectin, Millipore) at 1:1000 for 1 h on a shaker, followed by incubation with secondary antibody and scanning the plate using an infrared imaging system (Odyssey CLx imager, LI-COR, UK) at both the 700 nm and 800 nm wavelengths. Results were normalized to the cell number before lysis.

[6] = Homo sapiens, Fibroblast, read-out: Percentage of inhibition of TGF-β1 induced myofibroblast transformation, Tamoxifen only, 10 ng/ml TGF-β1, 72 hours
[7] = Homo sapiens, Fibroblast, 10 ng/ml TGF-β1, 72 hours, read-out: Percentage of inhibition of TGF-β1 induced myofibroblast transformation, Vardenafil only

Cc1cccc(-c2[nH]c(C(C)(C)C)nc2-c2ccc3c(c2)OCO3)n1 [SB505124]
IC50 [1]: 0.6 µM

O=C(c1ccc(OCCN2CCCCC2)cc1)c1c(-c2ccc(O)cc2)sc2cc(O)ccc12 [raloxifene]
IC50 [1]: 7 µM

CCCc1nn(C)c2c(=O)[nH]c(-c3cc(S(=O)(=O)N4CCN(C)CC4)ccc3OCC)nc12 [sildenafil]
IC50 ([1]; Homo sapiens, Fibroblast): 15 µM

CN1CC(=O)N2[C@H](c3ccc4c(c3)OCO4)c3[nH]c4ccccc4c3C[C@@H]2C1=O [tadalafil]
IC50 ([1]; Homo sapiens, Fibroblast): 3.5 µM

CC/C(=C(\c1ccccc1)c1ccc(OCCN(C)C)cc1)c1ccccc1 [tamoxifen]
TGF-β1-induced upregulation of collagen expression (collagens I, III, V mRNA) in penile tissue ([2]; 5 weeks treatment, qPCR): prevented
penile fibrosis in an animal model for PD ([2]; FIG. 5): ameliorate penile fibrosis
Percentage of inhibition of TGF-β1 induced myofibroblast transformation, Tamoxifen only ([1]; 100 μM, 10 ng/ml TGF-β1, 72 hours): cell death
inhibition at 0.3 µM [1, 6]: 10 ± 3%
inhibition at 1 µM [1, 6]: 10 ± 2%
inhibition at 3 µM [1, 6]: 10 ± 3%
inhibition at 10 µM [1, 6]: 25 ± 3%
concentration at which TGF-β1-induced contraction of collagen was inhibited [3]: 1 µM
TGF-β1-induced decrease in erectile function (ICP) by 55% [4]: prevented

CCCc1nc(C)c2c(=O)[nH]c(-c3cc(S(=O)(=O)N4CCN(CC)CC4)ccc3OCC)nn12 [vardenafil]
inhibition at 0.3 µM [1, 7]: 3 ± 3%
inhibition at 1 µM [1, 7]: 10 ± 1%
inhibition at 3 µM [1, 7]: 8 ± 2%
inhibition at 10 µM [1, 7]: 17 ± 2%
inhibition at 30 µM ([1]; Homo sapiens, Fibroblast, 30 μM, 10 ng/ml TGF-β1, 72 hours, read-out: Percentage of inhibition of TGF-β1 induced myofibroblast transformation, Vardenafil only): 25 ± 1%
inhibition at 100 µM ([1]; Homo sapiens, Fibroblast, 100 μM, 10 ng/ml TGF-β1, 72 hours, read-out: Percentage of inhibition of TGF-β1 induced myofibroblast transformation, Vardenafil only): 48 ± 1%
IC50 ([1]; Homo sapiens, Fibroblast): 30 µM
concentration at which TGF-β1-induced contraction of collagen was inhibited [3]: 10 µM
IC50 ([5]; read-out: IC50, TGF-β1-induced ECM protein production: collagen I): 23 µM
IC50 ([5]; read-out: IC50, TGF-β1-induced ECM protein production: collagen III): 17 µM
IC50 ([5]; read-out: IC50, TGF-β1-induced ECM protein production: collagen V): 23 µM
IC50 ([5]; read-out: IC50, TGF-β1-induced ECM protein production: fibronectin): 44 µM
